The text below walks through data of PubChem BioAssay (NCI).

SMILES strings stand for the structures. Where “and” joins values, the source holds several entries; their conditions need not be identical. Equal values may be shown once.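 Method: 48-hour compound exposure of cells in 96-well plates, five concentrations, linear interpolation of endpoints. GI50 marks 50% less growth. TGI denotes the concentration required for complete inhibition of growth.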

For this experiment, the system named is MDA-MB-468 breast. As to the kind of experiment: NCI anticancer screen, dose series, 48 h.
`CCOC(=O)C1=C(C)NC(C)=C(C(=O)OCC)C1c1cc(Br)c(O)c(OC)c1`: the GI50 was 2880 nM and the TGI is 14400 nM.
The like results for `CS(=O)/C(C#N)=C\C=C\c1cccc(Cl)c1` (stereo not drawn) were, in that order, 1270 nM and 4280 nM.
`Cc1cc(Br)c2nsnc2c1[N+](=O)[O-]`: the GI50 was 1450 nM and the TGI was 3240 nM.
`O=C1c2ccccc2C(=O)c2c(NCCNCCO)ccc(NCCNCCO)c21`: the GI50 is 904 nM and 1300 nM and 1660 nM; the TGI is 2450 nM and 2920 nM and 3840 nM.
Regarding `Cc1ccc(-c2c3c(N)nc(-c4ccncc4)nc3nc3c2c(C)nn3-c2ccccc2)cc1`, the GI50 is over 37500 nM and the TGI was over 37500 nM.
On to `CCc1ccc(Oc2nccc(-c3c(-c4ccc(F)cc4)ncn3C3CCNCC3)n2)cc1`, for which the GI50 is 3710 nM and the TGI turned out to be 7590 nM.
As to `c1cc2ccc3cc2cc1CNCCOCCNCc1ccc2ccc(cc2c1)CNCCOCCNC3`, the GI50 was over 100000 nM and the TGI is over 100000 nM.
On to `CC(=O)Nc1c(I)c(C(=O)O)c(I)c(N(C)C(C)=O)c1I`, for which the GI50 is over 100000 nM and the TGI was over 100000 nM.
As for `Oc1[nH]c2ccc(Cl)cc2c1/C=c1/ccc2c(c1)N=C(c1ccc(C(F)(F)F)cc1)N=2`, the GI50 is 1940 nM and the TGI worked out at 4570 nM.
For `CCCCCCCCn1ccc2cc(NC(=O)Cn3cc(CN4CCC(C)CC4)nn3)ccc21` the same measures were 1620 nM and 3290 nM.
On to `Cc1ccc(-n2nnc3c(sc4ccccc43)c2=O)cc1`, for which the GI50 is 18500 nM and the TGI was over 100000 nM.
Turning to `O=S1CCN(Cc2ccc(-c3ccc4ncnc(Nc5ccc(OCc6ccccc6)c(F)c5)c4c3)o2)CC1`, the GI50 is 130 nM and the TGI was 1190 nM.
For `Nc1ncnc2c1nc(N)n2C1OC(CO)C(O)C1O` (stereo not drawn) the same measures were 220 nM and 1150 nM.
As to `CCN1CCN(CC(=O)Nc2nc3ccc(NCc4ccc(C)cc4)cc3s2)CC1`, the GI50 is 2030 nM and the TGI turned out to be 8960 nM.
For `O=c1[nH]cc(CO)c(=O)[nH]1` the same measures were over 100000 nM and over 100000 nM.
In the case of `C/C(=C\CCc1ccsc1)CC/C=C(\C)CCCN1CCN(CCO)CC1`, the GI50 was 1610 nM and the TGI worked out at 4100 nM.
Consider `C=C1C(=O)O[C@H]2[C@H]1CC/C(COC(=O)c1cccc3ccccc13)=C\CC[C@@]1(C)O[C@@H]21`, for which the GI50 is 1350 nM and the TGI worked out at 3130 nM.
The like results for `COc1cc2nc(Cl)nc(Nc3cccc(C4=Nc5c(N)nc(N)nc5NC(c5ccc(Cl)cc5)C4)c3)c2cc1OC` (stereo not drawn) were, in that order, 1730 nM and 3490 nM.
On to `NC(Cc1ccc(O)cc1)C(=O)N/N=C/c1ccc(N(CCCl)CCCl)cc1` (stereo not drawn), for which the GI50 was 958 nM and the TGI turned out to be 10500 nM.
For `O=C(Nc1ccc2cc3ccc(NC(=O)N4CCCCCC4)cc3nc2c1)N1CCCCCC1` the same measures were 1560 nM and 3030 nM.
On to `O=[N+]([O-])c1ccc(N/N=C/c2ccccc2O)nc1`, for which the GI50 was 3120 nM and the TGI came to 29900 nM.
`Cc1ccc(C2NC(=S)N3C(c4ccc(C)cc4)NC(=S)N23)cc1` (stereo not drawn): the GI50 is 4620 nM and the TGI stood at 18900 nM.
Take `COc1ccc(Oc2nc(Nc3ccc(N4CCOCC4)cc3)ncc2NC(=O)Nc2cc(OC)cc(OC)c2)cc1`: the GI50 was 3390 nM and the TGI was 11700 nM.
For `COc1ccccc1N(C(C)=O)C1=C(Cl)C(=O)c2ccccc2C1=O`, the GI50 is 487 nM and the TGI amounted to 1940 nM.
As to `O=C1NC(=O)C(N2CCc3ccccc32)=C1c1ccc(Cl)cc1`, the GI50 is over 25000 nM and the TGI was over 25000 nM.
In the case of `Cc1cc(N2CCN(C)CC2)nc(N(CCNc2ccnc3cc(Cl)ccc23)Cc2ccco2)n1`, the GI50 is 2070 nM and the TGI was 6100 nM.
For `COC(=O)c1c2c(c(C)[n+]([O-])c1C)C(=O)C=C(NCc1ccc(Br)cc1)C2=O` the same measures were 207 nM and 816 nM.
As to `O=[N+]([O-])c1ccc(Oc2cccc(C(F)(F)F)c2)c([N+](=O)[O-])c1`, the GI50 was 1640 nM and the TGI came out at 3100 nM.
For `COc1ccc(C2=NNC(c3cc(Cc4ccc(O)c(C5CC(c6ccc(OC)cc6)=NN5)c4)ccc3O)C2)cc1` (stereo not drawn) the same measures were 2970 nM and 22900 nM.
For the molecule `O=C(N/N=C/c1ccncc1)c1ccc(C(F)(F)F)nc1Nc1cccc(C(F)(F)F)c1`, the GI50 was 1350 nM and the TGI was found to be 4390 nM.
As for `C[C@@H](Oc1cc(-c2cnn(C3CC4(CNC4)C3)c2)cnc1N)c1c(Cl)ccc(F)c1Cl`, the GI50 is 2460 nM and the TGI amounted to 9350 nM.
Consider `Cc1ccc2c(n1)C(=O)C(Cl)=C(Nc1ccc(N3CCN(C)CC3)cc1)C2=O`, for which the GI50 was 1510 nM and the TGI is 3130 nM.
For `COc1cc(OC)cc(C(=O)Nc2cccc(C#Cc3cccc4[nH]nc(N)c34)c2)c1` the same measures were 558 nM and 3920 nM.
In the case of `CCOC(=O)c1c(C(F)(F)F)n([O-])c2ccc(Cl)cc2[n+]1=O`, the GI50 was 1790 nM and the TGI amounted to 3920 nM.
For the molecule `Cc1ccn2c(-c3csc(Nc4cccc(O)c4)n3)c(C)nc2c1`, the GI50 is 1770 nM and the TGI turned out to be 7910 nM.
For `Cc1ccc(NC(C(=O)c2ccccc2)c2ccccc2)cc1` (stereo not drawn) the same measures were 2180 nM and 8850 nM.
Take `O=C1c2cccc3cccc(c23)C(=O)N1CC#Cc1ccc2c3c(cccc13)C(=O)N(CCN1CCNCC1)C2=O`: the GI50 is 2190 nM and the TGI worked out at 5300 nM.
With `O=C(NC1CCNCC1)c1[nH]ncc1NC(=O)c1c(Cl)cccc1Cl`, the GI50 was 191 nM and 209 nM; the TGI was 434 nM and 525 nM.
For the molecule `N#Cc1ccc(N2Cc3cc(Cl)ccc3OC3=C2C(=O)N(Cc2ccc(F)cc2)C3=O)cc1`, the GI50 was 595 nM and the TGI was found to be 1340 nM.
Turning to `Nc1cccc2c1CN(C1CCC(=O)NC1=O)C2=O` (stereo not drawn), the GI50 was over 100000 nM and the TGI is over 100000 nM.
Consider `Cc1cc(NS(=O)(=O)c2ccc(NC(=O)COc3ccc(-c4cc5ccccc5[nH]4)cc3)cc2)no1`, for which the GI50 is 1610 nM and the TGI is 3520 nM.
For `NS(=O)(=O)c1cccc(-c2cc3ccncc3cc2OCc2ccccc2)c1` the same measures were 4080 nM and 16000 nM.
`CCCCCCCCCCCCNC(=O)[C@H]1CSC(c2cc(Br)cs2)N1` (stereo partly drawn): the GI50 is 890 nM and the TGI came out at 1740 nM.
Turning to `O=c1c(-c2ccc3c(c2)OCO3)coc2c(CO)c(O)ccc12`, the GI50 was 1850 nM and the TGI is 5370 nM.
